Experimental data as given in patent publication US11613538B2, “Method of inhibiting or reducing a viral infection” (PTC Therapeutics, Inc., priority 2009, dated 2023).

Test system: hypoxia-induced VEGF production in HeLa cells
Test: cells
Assay type: cell-based, human
Settings: Homo sapiens, HeLa

CCOC(=O)N1CCc2c([nH]c3ccc(Cl)cc23)C1c1cccc(OCCCN(CCOC)CCOC)c1 (centres unmarked) [Compound 1118]
EC50: 0.2 to 1 µM

CCOC(=O)N1CCc2c([nH]c3ccc(Cl)cc23)[C@@H]1c1ccc(Oc2cnccn2)cc1 [Compound 1574]
EC50: < 0.008 µM

COc1ccc(C2c3[nH]c4ccc(Cl)cc4c3CCN2C(=O)C(=O)OCC2CC2)cc1 (centres unmarked) [Compound 1717]
EC50: 0.008 to 0.04 µM

CC1(COc2ccc([C@H]3c4[nH]c5ccc(Cl)cc5c4CCN3C(=O)OCC3CC3)cc2)COC(C)(C)OC1 [Compound 1317]
EC50: < 0.008 µM

CC1(COC(=O)N2CCc3c([nH]c4ccc(Cl)cc34)[C@@H]2c2ccc(OC[C@@H](O)CO)cc2)CC1 [Compound 1381]
EC50: < 0.008 µM

COc1ccc(OC(=O)N2CCc3c([nH]c4ccc(Cl)cc34)C2c2ccc(OCCC3CCCN3C)cc2)cc1 (centres unmarked) [Compound 1005]
EC50: 0.2 to 1 µM

CC(CO)(CO)COc1ccc([C@H]2c3[nH]c4ccc(Cl)cc4c3CCN2C(=O)OC2CCCC2)cc1 [Compound 1321]
EC50: < 0.008 µM

COCCOC(=O)N1CCc2c([nH]c3ccc(Cl)cc23)C1c1ccc(OCCCO)cc1 (centres unmarked) [Compound 1109]
EC50: < 0.008 µM

COc1cc(C2c3[nH]c4ccc(Cl)cc4c3CCN2C(=O)Oc2ccccc2)ccc1OCCCN1CCOCC1 (centres unmarked) [Compound 1130]
EC50: 0.008 to 0.04 µM

COCCOC(=O)N1CCc2c([nH]c3ccc(Cl)cc23)C1c1ccc(OCCCn2nccn2)cc1 (centres unmarked) [Compound 1084]
EC50: 0.008 to 0.04 µM

COc1ccc(C2c3[nH]c4ccc(Cl)cc4c3CCN2c2nc(-c3ccccc3)c(C(=O)c3ccc(Cl)cc3)s2)cc1 (centres unmarked) [Compound 1600]
EC50: < 0.008 µM

CC1(C)OC[C@H](CCOc2ccc([C@H]3c4[nH]c5ccc(Cl)cc5c4CCN3C(=O)OCC3CC3)cc2)O1 [Compound 1314]
EC50: < 0.008 µM

CCOC(=O)N1CCc2c([nH]c3ccc(Cl)cc23)C1c1cccc(OCCCN2CCSCC2)c1 (centres unmarked) [Compound 1116]
EC50: 0.008 to 0.04 µM

CC(C)OC(=O)N1CCc2c([nH]c3ccc(Br)cc23)C1c1ccc(OCC[C@H](O)CO)cc1 (some centres unmarked) [Compound 1346]
EC50: < 0.008 µM

O=C(OC1CCCC1)N1CCc2c([nH]c3ccc(Cl)cc23)[C@@H]1c1ccc(OC2CCOCC2)cc1 [Compound 1253]
EC50: < 0.008 µM

COc1ccc(C2c3[nH]c4ccc(Cl)cc4c3CCN2C(N)=S)cc1 (centres unmarked) [Compound 1247]
EC50: 0.2 to 1 µM

CC(C)COC(=O)N1CCc2c([nH]c3ccc(Cl)cc23)C1c1ccc(OCCNc2ncc[nH]2)cc1 (centres unmarked) [Compound 1409]
EC50: 0.2 to 1 µM

O=C(Oc1ccc(Cl)cc1)N1CCc2c([nH]c3cc(Br)ccc23)C1c1ccc(OC(F)F)cc1 (centres unmarked) [Compound 1446]
EC50: 0.04 to 0.2 µM

O=C(OCCN1CCOCC1)N1CCC(Oc2ccc([C@H]3c4[nH]c5ccc(Cl)cc5c4CCN3C(=O)Oc3ccc(Cl)cc3)cc2)CC1 [Compound 1693]
EC50: < 0.008 µM

COc1ccc(C2NCCc3c2[nH]c2ccc(C#N)cc32)cc1 (centres unmarked) [Compound 1519]
EC50: > 1 µM

O=C(/C=C/c1ccccc1)N1CCc2c([nH]c3ccc(Cl)cc23)C1c1ccc(OCCCn2cncn2)cc1 (centres unmarked) [Compound 1508]
EC50: 0.008 to 0.04 µM

O=C(Oc1ccc(F)cc1)N1CCc2c([nH]c3ccc(Cl)cc23)C1c1ccc(OCCCn2nccn2)cc1 (centres unmarked) [Compound 1017]
EC50: < 0.008 µM

CC1(C)OC[C@H](COc2ccc([C@H]3c4[nH]c5ccc(Cl)cc5c4CCN3C(=O)Oc3ccc(Cl)cc3)cc2)O1 [Compound 1227]
EC50: < 0.008 µM

CCN1CCN(C(=O)COc2ccc(C3c4[nH]c5ccc(Cl)cc5c4CCN3C(=O)Oc3ccc(OC)cc3)cc2)CC1 (centres unmarked) [Compound 1028]
EC50: 0.04 to 0.2 µM

COc1ccc(C2c3[nH]c4cccc(Br)c4c3CCN2C(=O)Oc2ccc(Br)cc2)cc1 (centres unmarked) [Compound 1526]
EC50: 0.04 to 0.2 µM

COc1ccc(C2c3[nH]c4ccc(Cl)cc4c3CCN2c2nc(-c3ccc(Cl)cc3)cs2)cc1 (centres unmarked) [Compound 1597]
EC50: < 0.008 µM

CC(C)COC(=O)N1CCc2c([nH]c3ccc(Br)cc23)C1c1ccc(OCC[C@H](O)CO)cc1 (some centres unmarked) [Compound 1347]
EC50: < 0.008 µM

COC(=O)N1CCc2c([nH]c3ccc(Cl)cc23)C1c1ccc(OCCCN2CCN(C)CC2)cc1 (centres unmarked) [Compound 1101]
EC50: 0.04 to 0.2 µM

CCOC(=O)N1CCc2c([nH]c3ccc(Cl)cc23)[C@@H]1c1ccc(OCC(C)(CO)CO)cc1 [Compound 1283]
EC50: < 0.008 µM

CC#CCOC(=O)N1CCc2c([nH]c3ccc(Cl)cc23)C1c1ccc(OC2CCN(S(=O)(=O)CC[Si](C)(C)C)CC2)cc1 (centres unmarked) [Compound 1579]
EC50: < 0.008 µM

CC1(C)OC[C@H](CCOc2ccc([C@H]3c4[nH]c5ccc(Cl)cc5c4CCN3C(=O)OC3CCCC3)cc2)O1 [Compound 1316]
EC50: < 0.008 µM

CC1(COc2ccc([C@H]3c4[nH]c5ccc(Cl)cc5c4CCN3C(=O)OCC3CCC3)cc2)COC(C)(C)OC1 [Compound 1318]
EC50: < 0.008 µM

CCOC(=O)N1CCc2c([nH]c3ccc(Cl)cc23)C1c1ccc(OCC[C@H](O)CO)cc1 (some centres unmarked) [Compound 1173]
EC50: < 0.008 µM

CC1(C)OC[C@H](CCOc2ccc([C@H]3c4[nH]c5ccc(Cl)cc5c4CCN3C(=O)Oc3ccc(Cl)cc3)cc2)O1 [Compound 1203]
EC50: < 0.008 µM

Cc1ccc(OC(=O)N2CCC3c4cc(Cl)ccc4NC3[C@@H]2c2ccc(OCCC(O)CN3CCOCC3)cc2)cc1 (some centres unmarked) [Compound 1302]
EC50: 0.04 to 0.2 µM

CC#CCOC(=O)N1CCc2c([nH]c3ccc(Cl)cc23)[C@@H]1c1ccc(OC2CCN(C(=O)OCCN3CCOCC3)CC2)cc1 [Compound 1680]
EC50: < 0.008 µM

COc1ccc(C2c3[nH]c4cc(C(F)(F)F)ccc4c3CCN2C(=O)Oc2ccc(F)cc2)cc1 (centres unmarked) [Compound 1424]
EC50: > 1 µM

COCCN1CCN(C(=O)COc2ccc(C3c4[nH]c5ccc(Cl)cc5c4CCN3C(=O)Oc3ccc(F)cc3)cc2)CC1 (centres unmarked) [Compound 1021]
EC50: 0.04 to 0.2 µM

COCCOC(=O)N1CCc2c([nH]c3ccc(Cl)cc23)C1c1ccc(OCC2OCCO2)cc1 (centres unmarked) [Compound 1042]
EC50: 0.008 to 0.04 µM

CCOC(=O)N1CCc2c([nH]c3ccc(Cl)cc23)C1c1cccc(C(=O)NCC(=O)O)c1 (centres unmarked) [Compound 1388]
EC50: > 1 µM

CCN(CC)C[C@@H](O)CCOc1ccc([C@H]2c3[nH]c4ccc(Cl)cc4c3CCN2c2ncccn2)cc1 [Compound 1305]
EC50: 0.008 to 0.04 µM

NC(=O)COc1ccc(C2c3[nH]c4ccc(Cl)cc4c3CCN2C(=O)OCCF)cc1 (centres unmarked) [Compound 1211]
EC50: 0.008 to 0.04 µM

COC(=O)N1CCc2c([nH]c3ccc(Cl)cc23)C1c1ccc(OCCC2CCCN2C)cc1 (centres unmarked) [Compound 1007]
EC50: 0.04 to 0.2 µM

[H]/N=C(\N)NCCOc1ccc(C2c3[nH]c4ccc(Cl)cc4c3CCN2C(=O)OCC)cc1 (centres unmarked) [Compound 1397]
EC50: 0.04 to 0.2 µM

CCOC(=O)N1CCc2c([nH]c3ccc(Cl)cc23)[C@@H]1c1ccc(OCCC(O)CNC(=O)CC)cc1 (some centres unmarked) [Compound 1615]
EC50: 0.008 to 0.04 µM

COc1ccc(OC(=O)N2CCc3c([nH]c4cccc(Br)c34)C2c2ccc(OC)cc2)cc1 (centres unmarked) [Compound 1527]
EC50: 0.2 to 1 µM

CC#CCOC(=O)N1CCc2c([nH]c3ccc(Cl)cc23)[C@@H]1c1ccc(OC2CCNCC2)cc1 [Compound 1683]
EC50: 0.008 to 0.04 µM

COc1ccc(OC(=O)N2CCc3c([nH]c4cccc(Cl)c34)C2c2ccc(OC)cc2)cc1 (centres unmarked) [Compound 1534]
EC50: 0.2 to 1 µM

CCOC(=O)N1CCc2c([nH]c3ccc(Cl)cc23)C1c1cccc(OCCCn2ccnc2)c1 (centres unmarked) [Compound 1122]
EC50: > 1 µM

CC1(C)OC[C@H](CCOc2ccc([C@H]3c4[nH]c5ccc(Cl)cc5c4CCN3c3ncccn3)cc2)O1 [Compound 1244]
EC50: < 0.008 µM

COc1ccc(C2c3[nH]c4ccc(Cl)cc4c3CCN2c2nc(C(F)(F)F)cs2)cc1 (centres unmarked) [Compound 1589]
EC50: < 0.008 µM

C/C=C/C(=O)N1CCc2c([nH]c3ccc(Cl)cc23)C1c1ccc(OCCCN2CCOCC2)cc1 (centres unmarked) [Compound 1509]
EC50: 0.04 to 0.2 µM

COc1ccc(OC(=O)C(=O)N2CCc3c([nH]c4ccc(Cl)cc34)C2c2ccc(OC)cc2)cc1 (centres unmarked) [Compound 1723]
EC50: > 1 µM

Cc1ccc(C(=O)N2CCc3c([nH]c4ccc(Cl)cc34)C2c2ccc(OCCCN3CCOCC3)cc2)cc1 (centres unmarked) [Compound 1190]
EC50: 0.04 to 0.2 µM

CN1C(=O)CN(CCCOc2ccc(C3c4[nH]c5ccc(Cl)cc5c4CCN3C(=O)Oc3ccc(Cl)cc3)cc2)C1=O (centres unmarked) [Compound 1673]
EC50: < 0.008 µM

O=C(Oc1ccccc1)N1CCc2c([nH]c3ccc(Cl)cc23)C1c1ccc(OCCCN2CCOCC2)cc1 (centres unmarked) [Compound 1075]
EC50: 0.008 to 0.04 µM

CC1(C)OC[C@H](CCOc2ccc([C@H]3c4[nH]c5ccc(Cl)cc5c4CCN3C(=O)OCC3CCC3)cc2)O1 [Compound 1315]
EC50: < 0.008 µM

CCOC(=O)N1CCc2c([nH]c3ccc(C#N)cc23)C1c1ccc(OC)cc1 (centres unmarked) [Compound 1512]
EC50: 0.2 to 1 µM

CC(C)COC(=O)N1CCc2c([nH]c3ccc(Cl)cc23)C1c1ccc(OCC[C@H](O)CO)cc1 (some centres unmarked) [Compound 1175]
EC50: 0.008 to 0.04 µM

CN1CCN(C[C@@H](O)CCOc2ccc([C@H]3c4[nH]c5ccc(Cl)cc5c4CCN3c3ncccn3)cc2)CC1 [Compound 1306]
EC50: 0.008 to 0.04 µM

CC(C)C(=O)N1CCc2c([nH]c3ccc(Cl)cc23)C1c1ccc(OCCCN2CCOCC2)cc1 (centres unmarked) [Compound 1193]
EC50: 0.04 to 0.2 µM

COc1ccc([C@H]2c3[nH]c4ccc(Cl)cc4c3CCN2C(=O)OCC2CCCC2)cc1 [Compound 1662]
EC50: 0.008 to 0.04 µM

CCOC(=O)N1CCc2c([nH]c3ccc(Cl)cc23)C1c1ccc(OCC(O)CNC(=O)c2ccncc2)cc1 (centres unmarked) [Compound 1467]
EC50: < 0.008 µM

O=C(Oc1ccc(C2NCCc3c2[nH]c2ccc(Cl)cc32)cc1)c1ccccc1 (centres unmarked) [Compound 1540]
EC50: 0.008 to 0.04 µM

CCOC(=O)N1CCc2c([nH]c3cc(C(F)(F)F)ccc23)C1c1ccc(OC)cc1 (centres unmarked) [Compound 1423]
EC50: > 1 µM

CCOC(=O)N1CCc2c([nH]c3ccc(Cl)cc23)C1c1cccc(OCCCN2CCN(C(C)=O)CC2)c1 (centres unmarked) [Compound 1363]
EC50: 0.04 to 0.2 µM

O=C(OCCCl)N1CCc2c([nH]c3ccc(Cl)cc23)C1c1ccc(OCC2OCCO2)cc1 (centres unmarked) [Compound 1040]
EC50: 0.008 to 0.04 µM

CC#CCOC(=O)N1CCc2c([nH]c3ccc(Cl)cc23)C1c1ccc(OCC(O)CO)cc1 (centres unmarked) [Compound 1018]
EC50: 0.008 to 0.04 µM

O=C(Oc1ccc(Cl)cc1)N1CCc2c([nH]c3ccc(Cl)cc23)[C@@H]1c1ccc(OC2CCN(CC[C@H](O)CO)CC2)cc1 [Compound 1703]
EC50: 0.2 to 1 µM

COC(=O)N1CCc2c([nH]c3ccc(Cl)cc23)C1c1ccc(OCC2OCCO2)cc1 (centres unmarked) [Compound 1032]
EC50: 0.008 to 0.04 µM

O=C(COc1ccc(C2c3[nH]c4ccc(Cl)cc4c3CCN2C(=O)Oc2ccc(F)cc2)cc1)NCCO (centres unmarked) [Compound 1063]
EC50: 0.008 to 0.04 µM
